Tested on: in vitro BBB model (HBMEC)
Experiment: BBB penetration in vitro: transport ratio across HBMEC transwell model
Type: in vitro ADME, human
Conditions: 240 minutes, FITC 10 μmol⋅L^−1

With fluorescein isothiocyanate [FITC] the BBB transportation ratio was 4.53%.

From publication PMC6173183 (International Journal of Nanomedicine, 2018)
